Reference: ChEMBL document CHEMBL5346978, “Exploration of Tetrahydroisoquinoline- and Benzo[c]azepine-Based Sphingosine 1-Phosphate Receptor 1 Agonists for the Treatment of Multiple Sclerosis” (J Med Chem, 2023)
Activity calls are given as the source filed them. The rule behind the calls is not given here.

Experiments:
[1] = target: T1, Sphingosine 1-phosphate receptor 1 (Homo sapiens, UniProt P21453); assay: Agonist activity at S1P1 (unknown origin) expressed in PathHunter CHO-K1 EDG1 beta-arrestin cells assessed as beta-arrestin2 recruitment incubated for 90 mins by chemiluminescence based assay; format: functional, cell-based
T1 sequence (P21453 whole entry): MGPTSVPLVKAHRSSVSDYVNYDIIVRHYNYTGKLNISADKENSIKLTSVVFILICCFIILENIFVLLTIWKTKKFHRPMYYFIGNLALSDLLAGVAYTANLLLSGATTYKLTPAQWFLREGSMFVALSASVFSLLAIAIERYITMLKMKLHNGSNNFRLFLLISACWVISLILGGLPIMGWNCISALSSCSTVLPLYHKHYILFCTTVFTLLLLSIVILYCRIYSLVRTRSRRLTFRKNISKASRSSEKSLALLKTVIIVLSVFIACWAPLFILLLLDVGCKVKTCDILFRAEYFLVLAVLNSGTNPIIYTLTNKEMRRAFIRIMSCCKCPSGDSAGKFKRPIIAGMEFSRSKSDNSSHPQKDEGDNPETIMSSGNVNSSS

Mus musculus [2] = assay: In vivo agonist activity at S1P1 in po dosed mouse assessed as reduction in peripheral lymphocyte count measured at 6 hrs; format: functional, organism-based; details: dose 1-10 mg/kg
[3] = Cmax in ICR mouse at 10 mg/kg, po measured at 0.25 to 12 hrs by LC-MS/MS analysis; format: ADME, organism-based; parameters: time upper 12 hrs, dose 10 mg/kg, time lower 0.25 hrs, route po; details: in vivo
[4] = target: Sphingosine 1-phosphate receptor 5 (Homo sapiens, UniProt Q9H228); assay: Agonist activity at S1P5 (unknown origin) expressed in CHO cells assessed as Ca2+ activation; format: functional, cell-based
Sphingosine 1-phosphate receptor 5, sequence (Q9H228 whole entry): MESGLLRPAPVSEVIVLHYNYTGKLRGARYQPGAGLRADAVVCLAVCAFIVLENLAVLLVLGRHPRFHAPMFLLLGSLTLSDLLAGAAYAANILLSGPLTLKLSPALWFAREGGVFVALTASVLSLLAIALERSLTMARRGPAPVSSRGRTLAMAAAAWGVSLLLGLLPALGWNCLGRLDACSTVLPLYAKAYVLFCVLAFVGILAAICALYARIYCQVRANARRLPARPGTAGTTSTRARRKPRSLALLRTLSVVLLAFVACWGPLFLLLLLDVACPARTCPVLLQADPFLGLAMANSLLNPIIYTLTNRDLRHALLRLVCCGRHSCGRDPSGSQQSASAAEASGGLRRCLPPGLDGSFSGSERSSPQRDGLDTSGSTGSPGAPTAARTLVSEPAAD

[5] = Half life in ICR mouse at 1 mg/kg, iv measured at 0.25 to 12 hrs by LC-MS/MS analysis; format: ADME, organism-based; details: in vivo, time 0.25-12 hrs
[6] = Observed clearance in ICR mouse at 1 mg/kg, iv measured at 0.25 to 12 hrs by LC-MS/MS analysis; format: ADME, organism-based; details: in vivo, time 0.25-12 hrs
CYP2C9 = CYP2C9 (Homo sapiens, UniProt P11712); assay: Inhibition of CYP2C9 in human liver microsomes using diclofenac as substrate assessed as residual activity at 10 uM preincubated for 5 mins followed by substrate addition and measured after 15 mins in presence of NADPH by LC-MS/MS analysis; format: ADME, Microsome; details: probe diclofenac, time 20 min, read-out: Activity
CYP2C9, sequence (P11712 whole entry): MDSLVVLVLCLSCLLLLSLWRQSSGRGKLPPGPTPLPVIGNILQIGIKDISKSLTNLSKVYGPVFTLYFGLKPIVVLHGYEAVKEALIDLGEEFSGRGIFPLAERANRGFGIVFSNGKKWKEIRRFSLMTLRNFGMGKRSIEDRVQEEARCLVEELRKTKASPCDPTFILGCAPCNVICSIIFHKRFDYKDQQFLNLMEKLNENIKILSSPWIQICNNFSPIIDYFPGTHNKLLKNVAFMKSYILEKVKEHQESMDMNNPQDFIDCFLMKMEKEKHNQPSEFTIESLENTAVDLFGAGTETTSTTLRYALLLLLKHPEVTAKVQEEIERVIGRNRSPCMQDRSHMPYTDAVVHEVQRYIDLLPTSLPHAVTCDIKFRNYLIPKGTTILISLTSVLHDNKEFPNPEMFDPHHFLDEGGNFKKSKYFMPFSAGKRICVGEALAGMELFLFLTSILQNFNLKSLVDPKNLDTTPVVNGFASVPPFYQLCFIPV

[7] = target: Sphingosine 1-phosphate receptor 2 (Homo sapiens, UniProt O95136); assay: Agonist activity at S1P2 (unknown origin) expressed in PathHunter CHO-K1 EDG1 beta-arrestin cells assessed as beta-arrestin recruitment; format: functional, cell-based
Sphingosine 1-phosphate receptor 2, sequence (O95136 whole entry): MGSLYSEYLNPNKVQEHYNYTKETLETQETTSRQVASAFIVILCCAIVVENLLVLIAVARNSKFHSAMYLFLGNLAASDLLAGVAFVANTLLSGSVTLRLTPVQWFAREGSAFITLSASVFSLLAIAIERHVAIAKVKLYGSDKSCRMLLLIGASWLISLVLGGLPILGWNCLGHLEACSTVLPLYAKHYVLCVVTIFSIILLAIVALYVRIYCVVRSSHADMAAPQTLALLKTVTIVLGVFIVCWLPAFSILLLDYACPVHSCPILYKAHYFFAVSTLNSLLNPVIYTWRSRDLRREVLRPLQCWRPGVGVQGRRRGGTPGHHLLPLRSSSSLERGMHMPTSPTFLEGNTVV

Mus musculus [8] = assay: In vivo agonist activity at S1P1 in mouse assessed as reduction in peripheral lymphocyte count at 1 to 3 mg/kg, po measured at 3 hrs; format: functional, organism-based; details: dose 1-3 mg/kg
Mus musculus [9] = assay: In vivo agonist activity at S1P1 in po dosed mouse assessed as reduction in peripheral lymphocyte count at 1 to 10 mg/kg, po measured after 24 hrs; format: functional, organism-based; details: dose 1-10 mg/kg
[10] = Observed MRT (infinitive) in ICR mouse at 10 mg/kg, po measured at 0.25 to 12 hrs by LC-MS/MS analysis; format: ADME, organism-based; details: in vivo, time 0.25-12 hrs
[11] = Observed volume of distribution at steady state in ICR mouse at 1 mg/kg, iv measured at 0.25 to 12 hrs by LC-MS/MS analysis; format: ADME, organism-based; details: in vivo, time 0.25-12 hrs, read-out: Vdss
[12] = Tmax in ICR mouse at 10 mg/kg, po measured at 0.25 to 12 hrs by LC-MS/MS analysis; format: ADME, organism-based; details: in vivo, time 0.25-12 hrs
[13] = Cardiotoxicity in human iPSC-derived cardiomyocyte assessed as effect on intracellular cardiomyocyte contraction at 10 uM measured for 2 mins by FLIPR analysis; format: toxicity, cell-based; details: cardiac muscle cell
[14] = target: T1, Sphingosine 1-phosphate receptor 1; assay: Agonist activity at S1P1 (unknown origin) expressed in human HEK293/Galpha15 cells assessed as Ca2+ activation measured for 2 hrs by FLIPR analysis; format: functional, cell-based
CYP3A4 = CYP3A4 (Homo sapiens, UniProt P08684); assay: Inhibition of CYP3A4 in human liver microsomes using midazolam as substrate assessed as residual activity at 10 uM preincubated for 5 mins followed by substrate addition and measured after 15 mins in presence of NADPH by LC-MS/MS analysis; format: ADME, Microsome; details: probe midazolam, time 20 min, read-out: Activity
CYP3A4, sequence (P08684 whole entry): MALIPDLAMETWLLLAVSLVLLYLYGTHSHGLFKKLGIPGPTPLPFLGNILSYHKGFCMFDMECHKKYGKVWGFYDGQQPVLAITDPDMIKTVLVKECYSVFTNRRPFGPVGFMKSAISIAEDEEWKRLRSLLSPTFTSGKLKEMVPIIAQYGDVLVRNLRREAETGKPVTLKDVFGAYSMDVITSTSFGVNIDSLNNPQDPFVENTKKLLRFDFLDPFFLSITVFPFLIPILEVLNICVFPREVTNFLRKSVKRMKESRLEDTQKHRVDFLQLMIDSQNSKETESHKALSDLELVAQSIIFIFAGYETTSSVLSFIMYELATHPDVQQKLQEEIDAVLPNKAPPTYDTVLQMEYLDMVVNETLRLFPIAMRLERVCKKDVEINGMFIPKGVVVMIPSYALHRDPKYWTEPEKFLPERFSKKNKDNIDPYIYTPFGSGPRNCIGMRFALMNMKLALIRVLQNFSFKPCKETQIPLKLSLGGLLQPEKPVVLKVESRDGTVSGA

[15] = Oral bioavailability in ICR mouse at 10 mg/kg measured at 0.25 to 12 hrs by LC-MS/MS analysis; format: ADME, organism-based; details: in vivo, time 0.25-12 hrs
CYP2D6 = CYP2D6 (Homo sapiens, UniProt P10635); assay: Inhibition of CYP2D6 in human liver microsomes using dextromethorphan as substrate assessed as residual activity at 10 uM preincubated for 5 mins followed by substrate addition and measured after 15 mins in presence of NADPH by LC-MS/MS analysis; format: ADME, Microsome; details: probe dextromethorphan, time 20 min, read-out: Activity
CYP2D6, sequence (P10635 whole entry): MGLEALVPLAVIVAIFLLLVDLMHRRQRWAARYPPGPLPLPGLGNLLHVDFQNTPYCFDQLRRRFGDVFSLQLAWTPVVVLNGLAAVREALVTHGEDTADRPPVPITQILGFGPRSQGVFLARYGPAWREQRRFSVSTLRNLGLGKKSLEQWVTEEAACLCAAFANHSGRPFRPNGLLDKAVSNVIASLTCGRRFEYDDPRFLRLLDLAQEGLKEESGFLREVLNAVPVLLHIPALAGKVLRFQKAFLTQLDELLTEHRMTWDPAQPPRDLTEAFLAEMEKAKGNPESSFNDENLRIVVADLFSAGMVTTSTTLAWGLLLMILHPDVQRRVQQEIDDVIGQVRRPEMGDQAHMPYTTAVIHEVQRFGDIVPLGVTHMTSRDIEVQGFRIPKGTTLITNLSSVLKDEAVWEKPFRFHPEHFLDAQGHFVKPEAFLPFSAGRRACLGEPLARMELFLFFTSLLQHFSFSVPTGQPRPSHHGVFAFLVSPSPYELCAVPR

[16] = AUClast in ICR mouse at 10 mg/kg, po measured at 0.25 to 12 hrs by LC-MS/MS analysis; format: ADME, organism-based; parameters: time 0.25-12 hrs, dose 10 mg/kg, route po; details: in vivo
[17] = Half life in ICR mouse at 10 mg/kg, po measured at 0.25 to 12 hrs by LC-MS/MS analysis; format: ADME, organism-based; details: in vivo, time 0.25-12 hrs
Mus musculus [18] = assay: In vivo agonist activity at S1P1 in mouse assessed as reduction in peripheral lymphocyte count at 10 mg/kg, po measured at 6 hrs; format: functional, organism-based
[19] = target: Sphingosine 1-phosphate receptor 3 (Homo sapiens, UniProt Q99500); assay: Agonist activity at S1P3 (unknown origin) expressed in PathHunter CHO-K1 EDG1 beta-arrestin cells assessed as beta-arrestin recruitment; format: functional, cell-based
Sphingosine 1-phosphate receptor 3, sequence (Q99500 whole entry): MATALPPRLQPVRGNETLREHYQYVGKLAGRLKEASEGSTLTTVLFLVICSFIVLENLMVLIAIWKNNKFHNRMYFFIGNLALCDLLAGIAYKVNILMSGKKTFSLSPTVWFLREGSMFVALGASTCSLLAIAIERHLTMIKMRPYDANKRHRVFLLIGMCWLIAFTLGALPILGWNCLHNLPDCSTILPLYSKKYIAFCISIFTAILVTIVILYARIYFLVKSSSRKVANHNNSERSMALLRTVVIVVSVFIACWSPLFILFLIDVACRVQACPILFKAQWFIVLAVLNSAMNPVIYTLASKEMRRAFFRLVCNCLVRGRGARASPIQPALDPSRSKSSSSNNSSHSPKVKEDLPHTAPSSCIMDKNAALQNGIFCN

[20] = target: T2, Sphingosine 1-phosphate receptor 4 (Homo sapiens, UniProt O95977); assay: Agonist activity at S1P4 (unknown origin) expressed in PathHunter CHO-K1 EDG1 beta-arrestin cells assessed as beta-arrestin recruitment; format: functional, cell-based
T2 sequence (O95977 whole entry): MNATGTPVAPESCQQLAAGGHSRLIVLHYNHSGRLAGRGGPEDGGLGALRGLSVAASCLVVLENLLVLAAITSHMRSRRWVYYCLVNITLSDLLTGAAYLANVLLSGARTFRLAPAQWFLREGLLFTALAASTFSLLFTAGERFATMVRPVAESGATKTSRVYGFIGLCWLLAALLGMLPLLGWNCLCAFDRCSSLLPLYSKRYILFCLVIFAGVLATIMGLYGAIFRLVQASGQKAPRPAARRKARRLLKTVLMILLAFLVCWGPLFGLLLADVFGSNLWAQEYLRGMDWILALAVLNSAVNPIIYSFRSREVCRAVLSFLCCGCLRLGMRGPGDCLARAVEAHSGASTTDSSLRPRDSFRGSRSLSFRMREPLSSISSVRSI

[21] = Microsomal stability in rat liver microsomes assessed as parent compound remaining preincubated for 5 mins followed by NADPH addition measured after 60 mins by LC-MS/MS analysis; format: ADME, Microsome; details: time 65 min, read-out: Stability
Mus musculus [22] = assay: In vivo agonist activity at S1P1 in mouse assessed as reduction in peripheral lymphocyte count at 10 mg/kg, po measured at 3 hrs; format: functional, organism-based
[23] = target: T2, Sphingosine 1-phosphate receptor 4; assay: Agonist activity at S1P4 (unknown origin) expressed in CHO cells assessed as Ca2+ activation; format: functional, cell-based
[24] = target: T1, Sphingosine 1-phosphate receptor 1; assay: Agonist activity at S1P1 (unknown origin) expressed in PathHunter CHO-K1 EDG1 beta-arrestin cells assessed as beta-arrestin2 recruitment at 1 uM incubated for 90 mins by chemiluminescence based assay relative to control; format: functional, cell-based; details: filed as agonist
[25] = Toxicity in C57BL/6 mouse assessed as body weight loss at 10 mg/kg, po administered once a day for 23 days; format: organism-based; details: in vivo, 552 h, time 23 day
[26] = AUClast in ICR mouse at 1 mg/kg, iv measured at 0.25 to 12 hrs by LC-MS/MS analysis; format: ADME, organism-based; parameters: time lower 0.25 hrs, dose 1 mg/kg, time upper 12 hrs, route iv; details: in vivo
[27] = Observed MRT (infinitive) in ICR mouse at 1 mg/kg, iv measured at 0.25 to 12 hrs by LC-MS/MS analysis; format: ADME, organism-based; details: in vivo, time 0.25-12 hrs
[28] = Microsomal stability in mouse liver microsomes assessed as parent compound remaining preincubated for 5 mins followed by NADPH addition measured after 60 mins by LC-MS/MS analysis; format: ADME, Microsome; details: time 65 min, read-out: Stability
[29] = target: T1, Sphingosine 1-phosphate receptor 1; assay: Agonist activity at S1P1 (unknown origin) expressed in human HEK293/Galpha15 cells assessed as Ca2+ activation at 1 uM measured for 2 hrs by FLIPR analysis relative to control; format: functional, cell-based; details: filed as agonist
Mus musculus [30] = assay: Protection against MOG35-55/CFA-induced experimental autoimmune encephalomyelitis C57BL/6 mouse model assessed as reduction disease progression at 10 mg/kg, po administered once a day for 23 days; format: functional, organism-based; details: time 23.0 day
[31] = Cardiotoxicity in human iPSC-derived cardiomyocyte assessed as effect on intracellular cardiomyocyte contraction at 20 uM measured for 2 mins by FLIPR analysis; format: toxicity, cell-based; details: cardiac muscle cell

CC(C)Oc1ccc(COc2ccc3c(c2)CCCN(S(=O)(=O)CCC(=O)O)C3)cc1C#N
EC50 [1]: 0.016 µM | Activity (Mus musculus [2]): Dose-Dependent Effect | Cmax [3]: 1130 ng/mL | EC50 [4]: 0.11 µM | half-life [5]: 0.6 h | clearance [6]: 29 mL/min/kg | activity at 0.25 h, 10 µM (CYP2C9): 96.2% | EC50 [7]: > 100 µM | Activity (Mus musculus [8]): Active | Activity (Mus musculus [9]): Active | MRT inf [10]: 2.5 h | Vd [11]: 0.6 L/kg | Tmax [12]: 5 h | Activity [13]: Non-Toxic | EC50 [14]: 0.021 µM | activity at 0.25 h, 10 µM (CYP3A4): 96.4% | bioavailability [15]: 33% | activity at 0.25 h, 10 µM (CYP2D6): 94.8% | AUC(0-t) [16]: 1960 ng·h/mL | half-life [17]: 1.8 h | Activity (Mus musculus [18]): Active | EC50 [19]: > 100 µM | EC50 [20]: 17.7 µM | remaining at 1 h [21]: 62.2% | Activity (Mus musculus [22]): Active | EC50 [23]: 33 µM | Activity [24]: 81% | Activity [25]: Non-Toxic | AUC(0-t) [26]: 593 ng·h/mL | MRT inf [27]: 0.4 h | remaining at 1 h [28]: 67.1% | Activity [29]: 113% | Activity (Mus musculus [30]): Active

CC(C)NCC(O)c1ccc(NS(C)(=O)=O)cc1 (centres undefined) [SOTALOL]
Activity [31]: Non-Toxic
